# Test results: patent US20180280364A1, “PHARMACEUTICAL COMPOSITIONS OF SODIUM PICOSULFATE, MAGNESIUM OXIDE AND CITRIC ACID” (Hetero Labs Limited, priority 2017, published 2018)
# Test: Compatibility study of sodium picosulfate with citric acid
# Format: physicochemical
# Conditions: produced a wet mass with high known impurities
# Description: As sodium picosulfate is having sensitivity towards an acidic nature ingredient, there is a need to formulate the composition of sodium picosulfate not in direct contact with the citric acid.
compound,measurement,value
O=S(=O)(O)Oc1ccc(C(c2ccc(OS(=O)(=O)O)cc2)c2ccccn2)cc1 [sodium picosulfate],Compatibility / stability with citric acid,not compatible or stable with citric acid physically and chemically
